Series [1] addresses T1, proMMP-9 (Homo sapiens, UniProt P14780).
T1 construct: Purified recombinant MMP-9 (50 nmol/L) or MMP-9/MMP-2PEX (50 nmol/L) was diluted in buffer
The experiment in a line: proMMP-9 tryptophan fluorescence blue shift binding assay. Conditions: binding to proMMP-9, tryptophan fluorescence.
Description: A blue shift in proMMP-9 tryptophan fluorescence was monitored to determine the binding affinity of all compounds. Binding of a test compound to MMP-9 was assayed by observing the change of tryptophan emission upon binding. Purified recombinant MMP-9 (50 nmol/L) or MMP-9/MMP-2PEX (50 nmol/L) was diluted in buffer (50 mmol/L Tris-HCl, 60 mmol/L KCl, and 0.05% Tween 20, pH 7.4) in the presence or absence of the test compound. As a control for protein stability and loss, an analogous buffer solution was added to the protein. The protein sample was excited at 280 nm and emission scans were collected from 290 to 400 nm, using slit widths of 0.3 nm on a QM 4/200SE spectrofluorimeter with double excitation and emission monochromators. Three emission scans were collected and averaged at each concentration. The Kd was determined using the Prism software package (GraphPad V5) to fit the data to Equation (Δ). λmax=(λmax^∞×[2])/(Kd+[2]) (A) in which λmax is the wavelength at which maximal fluorescence of the protein was observed.

In series [2] the test system is proMMP9-mediated migration of COS-1 cells. The experiment in a line: two-dimensional collagen dot migration assay, COS-1 cells overexpressing proMMP-9. It is filed as cell-based. The settings on record: 50 μM, 18 hours; for inhibition at 50 µM: Chlorocebus aethiops.
Description: This assay was initially used to test the efficacy of analogs at a single concentration, 50 μM.
Cells were mixed with type I collagen solution with or without compound, dotted onto a 96-well plate, and allowed to migrate for 18 hours. They were then fixed, stained and scored for extent of migration.
For series [3], the system named is MMP-9 at the cell surface of HT1080 cells. As to the kind of experiment: MMP-9 cell surface localization, immunofluorescence in HT1080 cells. The class given is cell-based, Human. The protocol: HT1080 cells were fixed in 4% paraformaldehyde then subsequently incubated with anti-MMP-9 in addition to anti-α4 and/or β1 integrin antibodies to monitor relative levels of localization of these proteins at the cell surface. The cells were counterstained with DAPI nuclear dye.

Series [4] relates to HT1080 cells. The experiment in a line: cell adhesion to collagen or fibronectin coated plate. It is filed as cell-based, Human. The settings on record: 37° C. 30 min. As to the method:
A 96-well plate was coated with a thin layer of either collagen or fibronectin (5 μg/ml in PBS) substrate before use. HT1080 cells were then seeded onto wells and incubated at 37° C. for 30 min in the presence of various inhibitors. Wells were washed and cells were fixed in 4% paraformaldehyde and stained with DAPI. Images of each 96-well were microscopically captured and counted for the number of cells still adherent to the coated surface using automated computer software.

Series [5] deals with COS-1 cells stably expressing vector control or proMMP-9. The experiment in a line: acute cytotoxicity in COS-1 cells. The class given is cell-based. Conditions: 100 nM staurosporine (positive control), 24 hours. As to the method:
Compound 3c was evaluated for acute cytotoxicity. COS-1 cells stably expressing either vector control or proMMP-9 cDNA were treated with 50 μM 3c for 24 hours. As negative and positive controls, cells were treated with DMSO alone or 100 nM staurosporine (STS), an apoptosis inducer, respectively. […] A non-statistically significant 8% decrease in cell growth occurred after treatment with 50 μM of compound 3c. These experiments were repeated in endogenous MMP-9 expressing HT1080 fibrosarcoma cells, which were analyzed for chronic toxicity (cells were re-treated every three days for a total of nine days).

Series [6] has as its system FAK and PAX adhesion junctions in HT1080 cells. As to the kind of experiment: focal adhesion complexes, immunofluorescence in HT1080 cells. The class given is cell-based, Human. Conditions: 80 nM, p-FAK and p-PAX.
Series [7] has as its target T2, APMA-activated recombinant proMMP-9 (Homo sapiens, UniProt P14780).
T2 construct: made in house
The experiment in a line: MMP-9 catalytic activity with fluorogenic peptide. The settings on record: 10 μM fluorogenic peptide, monitored over 2 hours. The class given is biochemical. As to the method:
Recombinant proMMP-9 protein was purified and incubated overnight in a 37° C. water bath in TNC buffer+1 mM APMA to artificially activate the protein.

T1 sequence (P14780 20-707 limits assumed): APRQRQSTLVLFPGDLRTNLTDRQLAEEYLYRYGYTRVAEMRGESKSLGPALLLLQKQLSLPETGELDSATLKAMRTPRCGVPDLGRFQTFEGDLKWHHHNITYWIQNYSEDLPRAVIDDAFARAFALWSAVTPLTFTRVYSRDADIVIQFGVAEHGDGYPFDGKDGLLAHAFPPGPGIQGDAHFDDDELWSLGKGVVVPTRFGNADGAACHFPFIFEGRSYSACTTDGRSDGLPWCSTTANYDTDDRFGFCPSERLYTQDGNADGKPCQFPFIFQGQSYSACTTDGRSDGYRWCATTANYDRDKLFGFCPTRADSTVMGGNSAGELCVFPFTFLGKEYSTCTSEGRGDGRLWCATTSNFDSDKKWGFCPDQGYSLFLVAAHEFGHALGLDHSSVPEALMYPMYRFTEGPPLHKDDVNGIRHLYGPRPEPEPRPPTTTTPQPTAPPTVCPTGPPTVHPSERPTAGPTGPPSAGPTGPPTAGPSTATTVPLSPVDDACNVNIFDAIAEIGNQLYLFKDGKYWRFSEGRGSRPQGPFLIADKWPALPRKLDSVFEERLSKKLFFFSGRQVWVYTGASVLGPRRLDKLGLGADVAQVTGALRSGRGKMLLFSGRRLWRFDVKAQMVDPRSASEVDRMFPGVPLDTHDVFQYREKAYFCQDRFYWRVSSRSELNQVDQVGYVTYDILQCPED
T2 sequence (P14780 107-707 limits assumed): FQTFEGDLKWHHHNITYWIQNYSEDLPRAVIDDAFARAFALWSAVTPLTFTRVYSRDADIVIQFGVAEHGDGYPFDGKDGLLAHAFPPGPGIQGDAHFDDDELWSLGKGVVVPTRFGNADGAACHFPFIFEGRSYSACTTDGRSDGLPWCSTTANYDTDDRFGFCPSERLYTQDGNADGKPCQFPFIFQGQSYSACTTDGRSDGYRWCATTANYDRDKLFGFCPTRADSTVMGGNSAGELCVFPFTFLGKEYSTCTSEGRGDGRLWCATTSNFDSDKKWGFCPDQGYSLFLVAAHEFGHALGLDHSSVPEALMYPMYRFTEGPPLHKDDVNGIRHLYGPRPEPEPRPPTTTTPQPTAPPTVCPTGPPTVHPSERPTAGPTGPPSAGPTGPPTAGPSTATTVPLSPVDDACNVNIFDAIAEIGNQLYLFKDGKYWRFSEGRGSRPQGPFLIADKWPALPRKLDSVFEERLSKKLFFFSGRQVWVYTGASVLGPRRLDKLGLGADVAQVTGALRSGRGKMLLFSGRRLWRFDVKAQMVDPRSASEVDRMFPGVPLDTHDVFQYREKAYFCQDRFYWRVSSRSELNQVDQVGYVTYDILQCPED

As to `CCCc1cc(=O)nc(SCC(=O)Nc2ccccc2)[nH]1` [Compound 1b, 2-(4-Oxo-6-propyl-1,4-dihydropyrimidin-2-ylthio)-N-phenylacetamide], the melting point was 170 °C (dec.). Also, in series [1], the dissociation constant (Kd) was 4500 ± 600 nM. Further, in series [2], 50 µM produced 12 ± 3% inhibition.
Compound `CCCc1cc(=O)nc(SCC(=O)Nc2ccc(F)cc2)[nH]1` [Compound 1c, N-(4-Fluorophenyl)-2-(4-oxo-6-propyl-1,4-dihydropyrimidin-2-ylthio)acetamide] displayed a melting point of 191 to 194 °C. Further, the dissociation constant Kd in series [1] was 3800 ± 600 nM. The same compound yielded an inhibition at 50 µM in series [2] of 29 ± 4%.
On to `CCCc1cc(=O)nc(SCC(=O)Nc2nc3ccccc3[nH]2)[nH]1` [Compound 1d, N-(1H-benzo[d]imidazol-2-yl)-2-(4-oxo-6-propyl-1,4-dihydropyrimidin-2-ylthio)acetamide], for which the melting point is 217 °C (dec.). Further, the Kd in series [1] came out at 1200 ± 200 nM. This compound also came in with an inhibition at 50 µM in series [2] of 61 ± 2%.
`CCCc1cc(=O)nc(SCC(=O)N(C)c2ccccc2)[nH]1` [Compound 1f, 2-(4-Oxo-6-propyl-1,4-dihydropyrimidin-2-ylthio)-N(methyl)-phenylacetamide, reference compound]: the “localization of MMP-9 on the cell surface” value in series [3] is reported as “did not disrupt the localization of MMP-9 on the cell surface”. In addition, in series [4], the cellular adhesion entry is recorded as “no affect on cell adhesion”. Besides, in series [2], the “% Inhibition of proMMP9-Mediated Migration at 50 μM” value came out at 2 ± 6%.
As for `CCCc1cc(=O)nc(SCCCC(=O)Nc2ccc(OC(F)F)cc2)[nH]1` [Compound 2a, N-(4-Difluoromethoxyphenyl)-4-(4-oxo-6-propyl-1,4-dihydropyrimidin-2-ylthio)butanamide], the equilibrium dissociation constant (Kd) in series [1] came to 1000 ± 200 nM. The same compound had an inhibition at 50 µM in series [2] of 63 ± 4%.
`CCCc1cc(=O)nc(SCCCC(=O)Nc2ccc(F)cc2)[nH]1` [Compound 2c, N-(4-Fluorophenyl)-4-(4-oxo-6-propyl-1,4-dihydropyrimidin-2-ylthio)butanamide] displayed a melting point of 180 to 182 °C. The Kd in series [1] came to 910 ± 100 nM. This compound also showed an inhibition at 50 µM in series [2] of 68 ± 3%.
The corresponding values for `O=C(CCCSc1nc2c(c(=O)[nH]1)CCCC2)Nc1ccc(OC(F)F)cc1` [Compound 3a, N-(4-Difluoromethoxyphenyl)-4-(4-oxo-3,4,5,6,7,8-hexahydroquinazolin-2-ylthio)butanamide] are 197 to 198 °C, 600 ± 100 nM and 74 ± 2%.
Turning to `O=C(CCCSc1nc2c(c(=O)[nH]1)CCCC2)Nc1ccccc1` [Compound 3b, 4-(4-Oxo-3,4,5,6,7,8-hexahydroquinazolin-2-ylthio)-N-phenylbutanamide], the Kd in series [1] came to 500 ± 100 nM. In addition, in series [2], the inhibition at 50 µM worked out at 76 ± 1%.
Take `O=C(CCCSc1nc2c(c(=O)[nH]1)CCCC2)Nc1nc2ccccc2[nH]1` [Compound 3d, N-(1H-Benzo[d]imidazol-2-yl)-4-(4-oxo-3,4,5,6,7,8-hexahydroquinazolin-2-ylthio)butanamide]: the melting point was > 230 °C. Besides, the Kd in series [1] is 500 ± 200 nM. Also, the inhibition at 50 µM in series [2] stood at 77 ± 2%.
Take `O=C(CCCSc1nc2ccccc2c(=O)[nH]1)Nc1ccc(OC(F)F)cc1` [Compound 4a, N-(4-(Difluoromethoxy)phenyl)-4-(4-oxo-3,4-dihydroquinazolin-2-ylthio)butanamide]: the melting point lay within 210 to 211 °C. The Kd in series [1] was determined as 500 ± 100 nM. The compound also yielded an inhibition at 50 µM in series [2] of 78 ± 3%.
`O=C(CCCSc1nc2ccccc2c(=O)[nH]1)Nc1ccccc1` [Compound 4b, 4-(4-Oxo-3,4-dihydroquinazolin-2-ylthio)-N-phenylbutanamide]: the dissociation constant (Kd) in series [1] stood at 800 ± 100 nM. Testing at 50 µM in series [2] gave an inhibition of 64 ± 4%.
As for `O=C(CCCSc1nc2ccccc2c(=O)[nH]1)Nc1ccc(F)cc1` [Compound 4c, N-(4-Fluorophenyl)-4-((4-oxo-3,4-dihydroquinazolin-2-yl)thio)butanamide], the melting point was in the range of 216 to 217 °C. For the same compound, in series [1], the dissociation constant (Kd) was determined as 640 ± 60 nM. The inhibition at 50 µM in series [2] turned out to be 73 ± 2%.
On to `O=C(CCCSc1nc2ccccc2c(=O)[nH]1)Nc1nc2ccccc2[nH]1` [Compound 4d, N-(1H-Benzo[d]imidazol-2-yl)-4-(4-oxo-3,4-dihydroquinazolin-2-ylthio)butanamide], for which the melting point was > 230 °C. The dissociation constant (Kd) in series [1] is 300 ± 100 nM. Further, in series [2], the inhibition at 50 µM turned out to be 81 ± 3%.
In the case of `CCCCCCNC(=O)CCCSc1nc2ccccc2c(=O)[nH]1` [Compound 4e, N-Hexyl-4-(4-oxo-3,4-dihydroquinazolin-2-ylthio)butanamide], the dissociation constant (Kd) in series [1] was found to be 900 ± 300 nM. Besides, 50 µM produced 56 ± 1% inhibition in series [2].
For `CN[C@@H]1C[C@H]2O[C@@](C)([C@@H]1OC)n1c3ccccc3c3c4c(c5c6ccccc6n2c5c31)C(=O)NC4` [STS, staurosporine, reference compound], the cell death entry in series [5] is on record as “Significant cell death”.
For `CNC(=O)[C@@H](NC(=O)[C@H](CC(C)C)[C@H](O)C(=O)NO)C(C)(C)C` [marimastat, reference compound], in series [6], the “formation of focal adhesion contact sites” value is recorded as “did not prevent the formation of focal adhesion contact sites”. Also, the cellular adhesion entry in series [4] was “no observable effect on cell attachment”. Also, in series [7], the “inhibition of MMP-9 catalytic activity” value was “no substrate cleavage was observed”.

The record behind these values is patent US11040947B2, “Substituted quinazolines as matrix metalloproteinase-9 hemopexin domain inhibitors” (The Research Foundation for The State University of New York, priority 2017, dated 2021).
